T1: CobB (Escherichia coli, UniProt P75960)
T1 construct: recombinant CobB, MBP tag cleaved
T1 sequence (P75960 1-279): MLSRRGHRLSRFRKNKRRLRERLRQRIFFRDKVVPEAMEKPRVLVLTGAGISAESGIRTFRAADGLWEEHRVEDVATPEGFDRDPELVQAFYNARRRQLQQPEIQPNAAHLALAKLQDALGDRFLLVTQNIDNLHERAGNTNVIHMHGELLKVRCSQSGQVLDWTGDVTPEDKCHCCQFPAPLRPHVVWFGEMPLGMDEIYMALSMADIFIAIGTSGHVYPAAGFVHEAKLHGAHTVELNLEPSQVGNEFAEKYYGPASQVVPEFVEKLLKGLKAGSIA

B1: nicotinamidase (PncA) (Escherichia coli K-12) (protein)
chain: MPPRALLLVDLQNDFCAGGALAVPEGDSTVDVANRLIDWCQSRGEAVIASQDWHPANHGSFASQHGVEPYTPGQLDGLPQTFWPDHCVQNSEGAQLHPLLHQKAIAAVFHKGENPLVDSYSAFFDNGRRQKTSLDDWLRDHEIDELIVMGLATDYCVKFTVLDALQLGYKVNVITDGCRGVNIQPQDSAHAFMEMSAAGATLYTLADWEETQG
notes: recombinant His6-tagged nicotinamidase

Experiments:
[1] = target: T2, nicotinamidase (PncA) (Escherichia coli, UniProt P21369); test: activity of purified PncA after […] min incubation with […] inhibitor at […]°C; activity undetectable; type: biochemical
T2 construct: recombinant His6-tagged nicotinamidase

[2] = target: T1, CobB; test: deacetylation of acetylated Acs by purified CobB at varied NAM and NAD+; Dixon and double-reciprocal plots (Ki approximately […]); type: biochemical
[3] = substrate: NC(=O)c1cccnc1; test: purified protein; type: biochemical, Escherichia coli

| Molecule | activity of purified PncA after 10 min incubation with 1 mM inhibitor at 37°C; a [1] | further results |
| --- | --- | --- |
| N#Cc1cccnc1 [3-pyridinecarbonitrile] | This result confirms PncA inhibition by 3-pyridinecarbonitrile and 3-pyridinecarboxaldehide in vitro. | – |
| O=Cc1cccnc1 [3-pyridinecarboxaldehide] | This result confirms PncA inhibition by 3-pyridinecarbonitrile and 3-pyridinecarboxaldehide in vitro. | – |
| NC(=O)c1cccnc1 [nicotinamide] | – | IC50 [2]: ~52 µM |
| B1 | – | Km [3]: 175 ± 27 µM |

Reference: publication PMC5734772, “Characterization of CobB kinetics and inhibition by nicotinamide” (PLoS ONE, 2017)
